Measurements from patent US20040197222A1 (priority 2002, published 2004).
Entries after “also recorded” stand apart in the source; their conditions may differ. Like-named read-outs stand apart in the source and are kept apart here.

Tests used:
[1] = tested on: B. stearothermophilus spores (10^5, ATCC #7953); assay type: cell-based, Bacillus stearothermophilus
[2] = tested on: B. subtilis var. niger spores (10^6, ATCC #9372); assay type: cell-based, Bacillus subtilis var. niger; conditions: for germination of B. subtilis spores: exposure as long as 164 hours
[3] = tested on: 10^6 spores of B. subtilis var. niger ATCC # 9372; assay type: cell-based, Bacillus subtilis var. niger; conditions: trailer, 20 sites, 28 °C to 38 °C, 250 to 350 oz/mcf, 48 hours
[4] = tested on: 10^5 of B. stearothermophilus ATCC # 7953; experiment: Trailer field fumigation, combined-species spore strips incubated for B. stearothermophilus; assay type: cell-based, Bacillus stearothermophilus
[5] = tested on: B. subtilis var. niger strips containing 10^8 spores; assay type: cell-based, Bacillus subtilis var. niger; conditions: 28 °C to 38 °C, 250 to 350 oz/mcf, 48 hours
[6] = tested on: Bacillus anthracis ANR-1 spores; assay type: cell-based; conditions: 37 °C; for reduction in B. anthracis spores: all concentrations tested (80 to 320 mg/L)
B. atrophaeus spores = assay type: cell-based
[7] = tested on: G. stearothermophilus spores; assay type: cell-based

CBr [methyl bromide]
Spore Germination B. stearo. [1]: no and yes
germination of Bacillus stearothermophilus spores [1]: prevented from germinating
Spore Germination B. subtilis ([2]; 19 °C, MeBr 48 mg/l (theoretical), 104 hours, 5,000 mg-hr/l): yes
Spore Germination B. subtilis ([2]; 19 °C, MeBr 48 mg/l (theoretical), 146 hours, 7,000 mg-hr/l): yes
Spore Germination B. subtilis ([2]; 19 °C, MeBr 80 mg/l (theoretical), 112 hours, 9,000 mg-hr/l): yes
Spore Germination B. subtilis ([2]; 19 °C, MeBr 80 mg/l (theoretical), 134 hours, 11,000 mg-hr/l): yes
Spore Germination B. subtilis ([2]; 19 °C, MeBr 80 mg/l (theoretical), 164 hours, 13,120 mg-hr/l): yes
Spore Germination B. subtilis ([2]; 19 °C, MeBr 160 mg/l (theoretical), 164 hours, 26,240 mg-hr/l): yes
germination of B. subtilis spores ([2]; 19 °C, methyl bromide 48 to 80 mg/l (theoretical value)): still germinated
germination of B. subtilis spores ([2]; 19 °C, methyl bromide as high as 320 mg/l (theoretical value)): still able to germinate
B. subtilis spore germination ([2]; 27 °C, methyl bromide 320 mg/l (theoretical value), 72 hours): successfully disabled
germination of the B. subtilis spores ([2]; 32 °C, methyl bromide 160 mg/l (theoretical value), 72 hours): not sufficient to stop germination; also recorded: not sufficient to prevent germination
B. subtilis spore germination ([2]; 32 °C, methyl bromide 240 mg/l (theoretical value), 38 hours): successfully disabled
Spore Germination B. subtilis ([2]; Example 1, 19 °C, MeBr 48 mg/l (theoretical), 63 hours, 3,000 mg-hr/l): yes
Spore Germination B. subtilis ([2]; Example 2, 19 °C, MeBr 48 mg/l (theoretical), 63 hours, 3,000 mg-hr/l): yes
Spore Germination B. subtilis ([2]; Example 2, 20 °C, MeBr 320 mg/l (theoretical), 72 hours, 23,040 mg-hr/l): yes
Spore Germination B. subtilis ([2]; Example 2, 20 °C, MeBr 320 mg/l (theoretical), 96 hours, 30,720 mg-hr/l): yes
Spore Germination B. subtilis ([2]; Example 2, 27 °C, MeBr 240 mg/l (theoretical), 48 hours, 11,520 mg-hr/l): yes
Spore Germination B. subtilis ([2]; Example 2, 27 °C, MeBr 320 mg/l (theoretical), 72 hours, 23,040 mg-hr/l): no
Spore Germination B. subtilis ([2]; Example 2, 27 °C, MeBr 320 mg/l (theoretical), 96 hours, 30,720 mg-hr/l): no
Spore Germination B. subtilis ([2]; Example 2, 27 °C, MeBr 320 mg/l (theoretical), 96 hours, 30,720 mg-hr/l, chamber contained office commodities): no^4
Spore Germination B. subtilis ([2]; Example 3, 19 °C, MeBr 48 mg/l (theoretical), 63 hours, 3,000 mg-hr/l): no
Spore Germination B. subtilis ([2]; Example 3, 27 °C, MeBr 320 mg/l (theoretical), 62 hours, 19,776 mg-hr/l): no
Spore Germination B. subtilis ([2]; Example 3, 32 °C, MeBr 160 mg/l (theoretical), 72 hours, 11,520 mg-hr/l): yes
Spore Germination B. subtilis ([2]; Example 3, 32 °C, MeBr 240 mg/l (theoretical), 48 hours, 11,520 mg-hr/l): no
Spore Germination B. subtilis ([2]; Example 3, 32 °C, MeBr 240 mg/l (theoretical), 72 hours, 17,280 mg-hr/l): no
Spore Germination B. subtilis ([2]; Example 3, 32 °C, MeBr 320 mg/l (theoretical), 38 hours, 12,160 mg-hr/l): no
Spore Germination B. subtilis ([2]; Example 3, 32 °C, MeBr 320 mg/l (theoretical), 47 hours, 15,104 mg-hr/l): no
spores on all 10^6 B. subtilis strips, field fumigation [3]: successfully disabled
spores on all 10^6 B. subtilis strips, field fumigation ([3]; listed as MB): killed
spores on all 10^5 B. stearothermophilus strips, field fumigation [4]: successfully disabled; also recorded: killed
germination of spores in strips with concentrations of 10^8, field fumigation [5]: successfully disabled
lowest total concentration at which treatment is effective (B. anthracis) ([6]; 48 hours): 80 mg/L
reduction in B. anthracis spores ([6]; 48 hours): ≥ 7 log
reduction in B. anthracis spores ([6]; 48 hours, listed as MB): ≥ 6 log
B. anthracis spores in chamber 6 ([6]; chamber 6, 48 hours): completely killed
B. anthracis spores remaining (detection level) ([6]; out of 14 million, 80 to 320 mg/L, 48 hours): < 50 spores
Recovery of viable spores, commercial spore strips B. atrophaeus (B. atrophaeus spores): no growth; also recorded: growth
killing of B. atrophaeus spores on a spore strip (B. atrophaeus spores): insufficient to kill all B. atrophaeus spores
Recovery of viable spores, commercial spore strips G. stearothermophilus A [7]: no growth
Recovery of viable spores, commercial spore strips G. stearothermophilus B [7]: no growth; also recorded: growth
killing of G. stearothermophilus spores on a spore strip [7]: capable of killing all G. stearothermophilus spores
